Experimental data from patent US6451790B1, “Azadioxacycloalkenes and their use for combating harmful fungi and animal pests” (BASF Aktiengesellschaft, priority 1999, dated 2002).

Key:
Assay type in all cases: in vivo
Botrytis cinerea = assay: Action against Botrytis cinerea on bell pepper leaves; conditions: 250 ppm, spray 1 day before inoculation, bell pepper seedlings, after 5 days; untreated 80%
From the text: The active compounds, separately or together, were formulated as a 10% emulsion in a mixture of 70% by weight of cyclohexanone, 20% by weight of Nekanil® LN (Lutensol® AP6, wetting agent having emulsifying and dispersant action based on ethoxylated alkylphenols) and 10% by weight of Wettol® EM (nonionic emulsifier based on ethoxylated castor oil) and diluted with water to the desired concentration.
Bell pepper seedlings of the variety “Neusiedler Ideal Elite” were, after 4 to 5 leaves were well developed, sprayed to run-off point with an aqueous active compound formulation which had been made up from a stock solution consisting of 10% of active compound, 63% of cyclohexanone and 27% of emulsifier. The next day, the treated plants were inoculated with a spore suspension of Botrytis cinerea which contained 1.7×10^6 spores/ml in an aqueous 2% strength biomalt solution. The test plants were subsequently placed in a climatized chamber at 22-24° C. and high atmospheric humidity. After 5 days, the extent of the fungal infection on the leaves could be determined visually in %.

Puccinia recondita = assay: Curative action against Puccinia recondita on wheat (wheat leaf rust); conditions: 16 ppm, curative spray 1 day after inoculation, wheat 'Kanzler', 7 days; untreated 100%
Pyricularia oryzae = conditions: 16 ppm, protective spray 1 day before inoculation, rice 'Tai-Nong 67', 6 days; untreated 90%

Structure (SMILES)	infection (extent of fungal infection on the leaves) (Botrytis cinerea)	infection (extent of rust fungus development on the leaves) (Puccinia recondita)	infection (extent of development of the disease on the leaves) (Pyricularia oryzae)
CO/N=C(/C(=O)OC)c1ccccc1COc1ccn(-c2ccc(Cl)cc2)n1 [Compound A]	40%	60%	–
CO/N=C(/C1=NOCCO1)c1ccccc1COc1ccccc1C [Compound B]	–	90%	40%
CO/N=C(/C1=NOCCO1)c1ccccc1COc1ccn(-c2ccc(Cl)cc2)n1 [Compound I-1, (ortho-[1-{4-chlorophenyl}-pyrazol-3-yl-oxymethyl]-phenyl)(5,6-dihydro-[1,4,2]dioxazin-3-yl)methanone O-methyl oxime]	3%	no infection	10%
